The values that follow come from PubChem BioAssay AID434987 (Southern Research Specialized Biocontainment Screening …, 2010).

Active and inactive are the calls of the source. No rule for the calls is given here. Where only a bound is given, the exact number is not on record here.

In general, IC50 refers to the point on the concentration scale where inhibition reaches its midpoint. For orientation: IC90 means the point of the concentration-response curve where the effect stands at 90%. Low readings indicate an effect from little substance, high ones a need for much substance.

The subject of this experiment is M. tuberculosis H37Rv growth inhibition with meropenem. Put plainly: dose response, H37Rv, with and without meropenem (AID 434987).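 Also: growth over 7 days at 37 °C before Alamar Blue read on day 9.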
Where [1] appears, read: M. tuberculosis H37Rv growth inhibition, measured here: IC50 without meropenem.
Setting [2] is: M. tuberculosis H37Rv growth inhibition, measured here: IC90 without meropenem.
Where [3] appears, read: measured here: IC90 with meropenem.

Take `O=C1OC(c2ccco2)=N/C1=C\c1ccc(-c2cccc(C(F)(F)F)c2)o1`: the IC50 was 48.9 µM (inactive). This molecule showed an IC50 under setting [1] of 75.3 µM. In addition, under setting [2], the concentration for an effect of 90% (IC90) is above 100 µM. The molecule further registered an IC90 under setting [3] of 53.4 µM.

Turning to `CCc1cc(C(=O)O)c(NC(=O)/C=C/c2ccc(OC)cc2)s1`, the half-maximal inhibitory concentration (IC50) was 8.76 µM. This molecule also gave a 50% inhibitory concentration (IC50) under setting [1] of 21.5 µM. In addition, the IC90 under setting [2] is above 100 µM. The molecule also yielded an IC90 under setting [3] of 59.7 µM.

With `CC(C)(C)NS(=O)(=O)c1ccc(NC(=O)C(Sc2ccccc2)c2ccccc2)cc1` (stereo not drawn), the IC50 was > 100 µM (inactive). This molecule also showed an IC50 under setting [1] above 100 µM. This molecule also gave an IC90 under setting [2] above 100 µM. Under setting [3], this molecule came in with an IC90 above 100 µM.

For the molecule `CCOC(=O)c1cc(-c2ccccc2)sc1NC(=O)C(C)N1C(=O)NC(C)(c2ccc(Cl)cc2)C1=O` (stereo not drawn), the IC50 was > 100 µM (inactive). This molecule also gave a half-maximal inhibitory concentration (IC50) under setting [1] above 100 µM. In addition, the 90% effect concentration (IC90) under setting [2] is above 100 µM. This molecule came in with an IC90 under setting [3] above 100 µM.

Consider `Cc1ccsc1/C=N/Nc1ncc(Cl)cc1Cl`, for which the IC50 is 8.81 µM. For the same molecule, the half-maximal inhibitory concentration (IC50) under setting [1] was found to be 50.9 µM. Under setting [2], this molecule came in with an IC90 above 100 µM. For the same molecule, under setting [3], the IC90 is above 100 µM.

Turning to `CCCCN=C1CC(C)(C)CC(=O)/C1=C(/O)CCC`, the IC50 was 18.9 µM (inactive). The molecule also registered a 50% inhibitory concentration (IC50) under setting [1] of 42.1 µM. This molecule also registered a concentration for an effect of 90% (IC90) under setting [2] above 100 µM. The molecule also returned an IC90 under setting [3] of 28.7 µM.

Take `COc1ccccc1NS(=O)(=O)c1cccc(N2CC(O)=C(c3ccccc3)C2=N)c1`: the IC50 is 8.71 µM (inactive). Also, the IC50 under setting [1] amounted to 21.1 µM. The molecule also had a 90% effect concentration (IC90) under setting [2] above 100 µM. Moreover, the IC90 under setting [3] amounted to 16 µM.

As to `Cc1cc(NC(=O)CSc2nc(C(C)C)nc3sc4c(c23)CCCC4)no1`, the IC50 was > 100 µM (inactive). Under setting [1], the 50% inhibitory concentration (IC50) was above 100 µM. The molecule further gave an IC90 under setting [2] above 100 µM. The concentration for an effect of 90% (IC90) under setting [3] was above 100 µM.

Take `CCOC(=O)CNC(=O)/C(=C\c1ccc(F)cc1)NC(=O)c1ccccc1`: the concentration for half-maximal inhibition (IC50) was 19.1 µM. The IC50 under setting [1] came to 55.5 µM. Besides, the concentration for an effect of 90% (IC90) under setting [2] is above 100 µM. Besides, the IC90 under setting [3] came to 35.1 µM.

For `Cc1ccc(C(=O)N/C(=C\c2ccc(-c3ccc(Cl)cc3)o2)C(=O)NCCCN(C)C)cc1`, the IC50 was 22.4 µM (inactive). Under setting [1], the concentration for half-maximal inhibition (IC50) was 25.2 µM. Further, the concentration for an effect of 90% (IC90) under setting [2] amounted to 28.3 µM. Under setting [3], this molecule gave a 90% effect concentration (IC90) of 23.7 µM.

Consider `CCOc1ccc(-c2nnc(SCC(=O)N3CCOCC3)o2)cc1`, for which the IC50 is > 100 µM (inactive). For the same molecule, the IC50 under setting [1] is above 100 µM. In addition, the IC90 under setting [2] is above 100 µM. The concentration for an effect of 90% (IC90) under setting [3] is above 100 µM.

In the case of `CCOC(=O)/C=c1\s/c(=C\c2c(OC)ccc3ccccc23)c(=O)n1CC(=O)NCC1CCCO1` (stereo not drawn), the IC50 was > 100 µM (inactive). The molecule further yielded an IC50 under setting [1] above 100 µM. Under setting [2], this molecule had an IC90 above 100 µM. Moreover, under setting [3], the IC90 is above 100 µM.

With `O=C(/C=C/c1ccccc1[N+](=O)[O-])c1ccc(F)cc1`, the concentration for half-maximal inhibition (IC50) was 19.8 µM. The half-maximal inhibitory concentration (IC50) under setting [1] turned out to be 94.1 µM. This molecule displayed a 90% effect concentration (IC90) under setting [2] above 100 µM. The same molecule returned an IC90 under setting [3] above 100 µM.

As for `CCCCCc1ccc(-c2ccc(/C=C/C(N)=O)cc2)nc1`, the IC50 was > 100 µM (inactive). The same molecule yielded an IC50 under setting [1] above 100 µM. The same molecule came in with an IC90 under setting [2] above 100 µM. Under setting [3], this molecule registered an IC90 above 100 µM.

In the case of `Cc1cc(=O)[nH]c(N/N=C/c2c(F)c(F)c(F)c(F)c2F)n1`, the IC50 was 64.6 µM (inactive). Further, the concentration for half-maximal inhibition (IC50) under setting [1] came out at 92.1 µM. This molecule also had a concentration for an effect of 90% (IC90) under setting [2] above 100 µM. The 90% effect concentration (IC90) under setting [3] is 82.3 µM.

Take `COc1cc(OC)c(C(=O)Nc2cccc3ccccc23)cc1OC`: the IC50 was > 100 µM (inactive). Besides, the half-inhibitory concentration (IC50) under setting [1] is above 100 µM. The same molecule gave an IC90 under setting [2] above 100 µM. This molecule also registered an IC90 under setting [3] above 100 µM.

As to `C=C(C)COc1ccc2c(C)c(C)c(=O)oc2c1OCC(=C)C`, the IC50 is 79.2 µM (inactive). Besides, the IC50 under setting [1] was above 100 µM. The molecule further had an IC90 under setting [2] above 100 µM. For the same molecule, the IC90 under setting [3] was above 100 µM.

Turning to `COc1ccc(NC(=O)C/C(C)=N/NC(=O)c2cnccn2)cc1`, the IC50 is 20.1 µM. Under setting [1], this molecule came in with a half-maximal inhibitory concentration (IC50) above 100 µM. Also, the 90% effect concentration (IC90) under setting [2] was above 100 µM. The same molecule gave an IC90 under setting [3] above 100 µM.

Take `O=c1oc(-c2ccco2)nc2sc3c(c12)CCCCC3`: the concentration for half-maximal inhibition (IC50) is 9.28 µM. In addition, the IC50 under setting [1] was found to be 67.6 µM. For the same molecule, under setting [2], the IC90 was determined as 90.2 µM. Also, under setting [3], the IC90 came to 38.5 µM.

For the molecule `N#Cc1c(SCC(=O)O)nc(N2CCCCC2)c2c1CCCC2`, the concentration for half-maximal inhibition (IC50) was 15.6 µM. Under setting [1], this molecule showed an IC50 of 49.6 µM. The molecule further returned a concentration for an effect of 90% (IC90) under setting [2] above 100 µM. The 90% effect concentration (IC90) under setting [3] amounted to 27 µM.

Take `O=c1oc(-c2cccs2)nc2sc3c(c12)CCCC3`: the IC50 was 22.2 µM. Besides, the IC50 under setting [1] is above 100 µM. For the same molecule, under setting [2], the IC90 is above 100 µM. Under setting [3], this molecule registered an IC90 of 29.7 µM.

Consider `O=C(NCCC1=CCCCC1)NC1CCCCC1`, for which the half-inhibitory concentration (IC50) is 17.8 µM. The IC50 under setting [1] is above 100 µM. The same molecule had an IC90 under setting [2] above 100 µM. In addition, under setting [3], the IC90 is above 50 µM.
